{"source": "patent US20240002325A1", "about": "“OXYLIPINS, PROCESSES FOR MAKING THE SAME, AND METHODS FOR USING THE SAME” (THE TRUSTEES OF INDIANA UNIVERSITY, priority 2020, published 2024)", "origin": "cited, not measured here", "key": {"[1]": {"tested_on": "flagellum-driven swimming and swarming motilities", "conditions": "has been reported"}, "bacterial biofilms": {"tested_on": "bacterial biofilms", "conditions": "in vitro; has been reported"}}}
{"smiles": "CCCCCCCCC(O)/C=C/CCCCCCC(=O)O", "note": "(centres unmarked) [Compound 10-HOME, (E)-10-hydroxyoctadec-8-enoic acid]", "values": [{"measurement": "effect on flagellum-driven swimming and swarming motilities", "setting": "[1]", "value": "inhibit flagellum-driven swimming and swarming motilities"}, {"measurement": "effect on formation of bacterial biofilms", "setting": "bacterial biofilms", "value": "stimulate the formation of bacterial biofilms in vitro"}]}
